Source: paper PMC9529094, “Identification of natural cytochalasins as leads for neglected tropical diseases drug discovery” (PLoS ONE, 2022)
Read-outs that look alike come from different tables or passages of the source.

How the values were obtained:
in vitro [1] = type: cell-based; details: human, 72 h, MTS
Experimental: THP-1 (human monocyte cell line) cells were cultivated in RPMI medium supplemented with 10% foetal calf serum (FCS) (Cultilab, Campinas, SP, BR) and 1% penicillin and streptomycin (pen/strep—Sigma-Aldrich) at 37°C under 5% CO2, and HFF-1 (human fibroblast) and HepG2 (hepatocytes) cells were cultivated in DMEM without phenol red (Cultilab) supplemented with 10% FBS (Sigma-Aldrich) and 1% pen/strep at 37°C under 5% CO2.
The cytotoxicity of the compounds against HFF-1 fibroblasts and HepG2 hepatocytes was evaluated using the MTS tetrazolium assay (Promega, Madison, WI, USA). HFF-1 fibroblasts were seeded at 4x10^3/well in 96-well culture plates in DMEM without phenol red and incubated overnight (37°C, 5% CO2). HepG2 hepatocytes were seeded at 7x10^3/well in 96-well culture plates in DMEM (Cultilab) with supplements (10% FCS, 1% pen/strep) and incubated overnight (37°C, 5% CO2). The compounds were added in 2-fold serial dilutions at the same concentrations described before, and the plates were incubated as described before. Each compound concentration was evaluated in duplicate. All the plates included doxorubicin (DOX) (Sigma-Aldrich) as a positive control (10–0.01 μM) and untreated wells as a negative control (100% growth). After 72 h, 15 μL of MTS (Promega) was added, and the plates were incubated for 4 h. The absorbance was measured at 490 nm in an automated SpectraMax 384 microplate reader (Sunnyvale, CA, USA), and the data were analysed using GraphPad Prism version 8.0 for CC50 value calculation. The percentage of nonviable cells was determined and compared to the negative control wells (100% growth).

in vitro [2] = type: in vitro ADME; details: PAMPA; donor pH 6.5, acceptor pH 7.4, 5 h, 37°C; read-out: PAMPA permeability Mean Pe
Experimental: A parallel artificial membrane permeability assay was performed in a 96-well precoated PAMPA plate system (Corning Gentest # 353015). The compound solutions were prepared by diluting the stock solutions (10 mM) in phosphate-buffered saline (PBS) pH 6.5 at a final concentration of 10 μM and then added to the donor portion of the plate (300 μl/well), while PBS pH 7.4 (200 μl/well) was added to the acceptor portion, and the DMSO concentration was lower than 1%. The two portions of the plate were then coupled, and the system was incubated for 5 h at 37°C. Samples of the initial donor solution (T0) were collected and stored at -20°C. At the end of the incubation, samples were collected from the donor and acceptor plates and then added to plates containing quench solution (10% water and 90% methanol:acetonitrile (50:50) + 50 nM tolbutamide). The T0 samples were treated similarly. The final concentrations of compounds in the donor, acceptor and T0 wells were quantified by LC-MS/MS (liquid chromatography-tandem mass spectrometry) Prominence UFLC (Shimadzu Corporation, Kyoto, Japan) and interfaced with an LCMS-8045 triple quadrupole mass spectrometer (Shimadzu Corporation, Kyoto, Japan) with an electrospray ionization source (ESI). The chromatogram for analysis was obtained on a Supelco Ascentis express C18 column (3 cm x 2.1 mm, 5 μM). The mobile phases consisted of water + 0.1% formic acid (A) and acetonitrile + 0.1% formic acid (B). The mobile phase was eluted in binary gradient mode, and the gradient was as follows: 0 min, 95% A; 0.05 mins. 95% A; 0.3 mins: 2% A; 0.7 mins: 2% A; 0.8 mins: 95% A; 1.15 mins 95% A; and 2.0 mins 95% A. The run time was 2 minutes, the sample injection volume was 10 μL, and the flow rate was 0.7 mL/min. The results were used to calculate an effective permeability (Pe) value.

in vitro [3] = type: in vitro ADME; details: pH 7.4, 0.5 μM compound, 0.25 mg/mL microsomes
Experimental: The metabolic stability of the cytochalasins was evaluated in human pooled liver human microsomes (20 mg/ml, GIBCO) and pooled liver CD1 mouse microsomes (20 mg/ml, GIBCO). Test cytochalasins were prepared at a concentration of 0.5 μM and incubated with 0.25 mg/mL liver microsomes at pH 7.4), and the DMSO concentration was lower than 1%. The reaction was started by adding the cofactor NADPH at […]. Samples were taken at time point 0 (immediately following the addition of the co-factor), 5, 10, 20, 30 and 60 minutes. The reaction was stopped by adding quench solution containing acetonitrile:methanol (1:1) (internal standard tolbutamide at 50 nM). The samples were centrifuged (3500 rpm/30 min.) to obtain the pellet of precipitated microsomal protein. The supernatant fractions were quantified by LC-MS/MS (liquid chromatography-tandem mass spectrometry) Prominence UFLC (Shimadzu Corporation, Kyoto, Japan) and interfaced with an LCMS-8045 triple quadrupole mass spectrometer (Shimadzu Corporation, Kyoto, Japan) with an electrospray ionization source (ESI). The peak area ratios (analyte/internal standard) were converted to the % remaining using the area ratio at time 0 as 100%. The half-life (t1/2 = ln(2)/k) in minutes and intrinsic clearance (Clint = k x 1000/(0.25)) in μL/min/mg were calculated using a nonlinear regression from the % remaining versus the incubation time. From this plot, the slope (k) was determined. The chromatogram for analysis was obtained on a Supelco Ascentis express C18 column (3 cm x 2.1 mm, 5 μM). The mobile phases consisted of water + 0.1% formic acid (A) and acetonitrile + 0.1% formic acid (B). The mobile phase was eluted in binary gradient mode, and the gradient was as follows: 0 min, 95% A; 0.05 mins. 95% A; 0.3 mins: 2% A; 0.7 mins: 2% A; 0.8 mins: 95% A; 1.15 mins 95% A; and 2.0 mins 95% A. The run time was 2 minutes, the sample injection volume was 10 μL, and the flow rate was 0.7 mL/min.

T. cruzi = test: Screening of natural product collection against T. cruzi (cell infection assay); type: cell-based; details: Trypanosoma cruzi; compound concentration of 50 μM
Experimental: (§1) A screening of a natural product collection was performed by using cell assays for infection with Trypanosoma cruzi and Leishmania infantum. The collection includes 320 compounds from the metabolic classes terpenes, alkaloids, peptides and amides that were isolated by plant species or endophytic fungi. For further evaluation in this study, cytochalasins A-D (CAS numbers: CytA: 14110-64-6, CytB: 14930-96-2, CytC: 22144-76-9, CytD: 22144-77-0) were obtained from Sigma-Aldrich (St. Louis, MO, USA). The purity of these compounds was ≥97%. The stock solution of the compounds was prepared in 100% DMSO (dimethyl sulfoxide—Sigma-Aldrich).

L. infantum = test: Screening of natural product collection against L. infantum (cell infection assay); type: cell-based; details: Leishmania infantum; compound concentration of 50 μM
Experimental: as §1

[4] = CD1, mouse, read-out: Mouse liver microsome (MsLM) CLint(mic)
[5] = human, read-out: Human liver microsome (HLM) CLint(mic)

## C=C1[C@@H](C)[C@H]2[C@H](Cc3ccccc3)NC(=O)[C@]23OC(=O)/C=C/C(=O)CCC[C@@H](C)C/C=C/[C@H]3[C@@H]1O [Cytochalasin A]
In vitro [1]; read-out: HFF-1 CC50 (μM ± SD)
  CC50: 27.07 ± 0.17 µM
In vitro [1]; read-out: HepG2 CC50 (μM ± SD)
  CC50: 21.1 ± 4.51 µM
In vitro [2]
  Papp: 27.1 ± 2.37 ×10⁻⁶ cm/s
In vitro [3]; [4]
  microsomal CLint: 167 ± 9.12 µL/min/mg
In vitro [3]; [5]
  microsomal CLint: 7.86 ± 2.05 µL/min/mg
T. cruzi
  inhibition at 50 µM: 99.7%
L. infantum
  inhibition at 50 µM: 100%

## C=C1[C@@H](C)[C@H]2[C@H](Cc3ccccc3)NC(=O)[C@]23OC(=O)/C=C/[C@H](O)CCC[C@@H](C)C/C=C/[C@H]3[C@@H]1O [Cytochalasin B]
In vitro [1]; read-out: HFF-1 CC50 (μM ± SD)
  CC50: 21.8 ± 3.57 µM
In vitro [1]; read-out: HepG2 CC50 (μM ± SD)
  CC50: 46.3 ± 19.3 µM
In vitro [2]
  Papp: 15.8 ± 0.31 ×10⁻⁶ cm/s
In vitro [3]; [4]
  microsomal CLint: 62.9 µL/min/mg
In vitro [3]; [5]
  microsomal CLint: 217 ± 6.05 µL/min/mg
T. cruzi
  inhibition at 50 µM: 79.4%
L. infantum
  inhibition at 50 µM: 57.7%

## CC(=O)OC1C=CC(C)(O)C(=O)C(C)CC=CC2C(O)C(C)=C(C)C3C(Cc4ccccc4)NC(=O)C123 (centres unmarked) [Cytochalasin C]
In vitro [1]; read-out: HFF-1 CC50 (μM ± SD)
  CC50: 76.3 ± 3.12 µM
In vitro [1]; read-out: HepG2 CC50 (μM ± SD)
  CC50: 22.5 ± 6.47 µM
In vitro [2]
  Papp: 14.8 ± 3.28 ×10⁻⁶ cm/s
In vitro [3]; [5]
  microsomal CLint: 144 ± 15.8 µL/min/mg
T. cruzi
  inhibition at 50 µM: 72.8%
L. infantum
  inhibition at 50 µM: 58.5%

## C=C1[C@@H](C)[C@H]2[C@H](Cc3ccccc3)NC(=O)[C@]23[C@H](OC(C)=O)/C=C/[C@@](C)(O)C(=O)[C@@H](C)C/C=C/[C@H]3[C@@H]1O [Cytochalasin D]
In vitro [1]; read-out: HFF-1 CC50 (μM ± SD)
  CC50: 96.5 ± 10 µM
In vitro [1]; read-out: HepG2 CC50 (μM ± SD)
  CC50: 123 ± 20 µM
In vitro [2]
  Papp: 8.74 ± 0.64 ×10⁻⁶ cm/s
In vitro [3]; [4]
  microsomal CLint: 163 ± 22.4 µL/min/mg
T. cruzi
  inhibition at 50 µM: 69.5%
L. infantum
  inhibition at 50 µM: 64.9%
